Results: ChEMBL document CHEMBL1201862, “PubChem BioAssay data set” (2004)
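Following 48 hours of exposure in 96-well plates, responses at five concentrations were used to interpolate endpoints linearly. Here, GI50 denotes the concentration required for 50% inhibition of growth.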 Activity calls are given as the source filed them. Rule as the data show it: active = GI50 up to about 1.1 µM and inactive = higher.

Legend:
Experiment in all cases: NCI tumour cell line growth inhibition, 48 h
786-0 = test system: 786-0
A498 = test system: A498
A549 = test system: A549
ACHN = test system: ACHN
BT-549 = test system: BT-549
CAKI-1 = test system: CAKI-1
CCRF-CEM = test system: CCRF-CEM
COLO 205 = test system: COLO 205
DU-145 = test system: DU-145
EKVX = test system: EKVX
HCC 2998 = test system: HCC 2998
HCT-116 = test system: HCT-116
HCT-15 = test system: HCT-15
HL-60 = test system: HL-60
HOP-62 = test system: HOP-62
HOP-92 = test system: HOP-92
HT-29 = test system: HT-29
Hs-578T = test system: Hs-578T
IGROV-1 = test system: IGROV-1
K562 = test system: K562
KM12 = test system: KM12
LOX IMVI = test system: LOX IMVI
M14 = test system: M14
MCF7 = test system: MCF7
MDA-MB-231 = test system: MDA-MB-231
MDA-MB-435 = test system: MDA-MB-435
MDA-N = test system: MDA-N
MOLT-4 = test system: MOLT-4
Malme-3M = test system: Malme-3M
NCI-H226 = test system: NCI-H226
NCI-H23 = test system: NCI-H23
NCI-H460 = test system: NCI-H460
NCI-H522 = test system: NCI-H522
NCI/ADR-RES = test system: NCI/ADR-RES
OVCAR-3 = test system: OVCAR-3
OVCAR-4 = test system: OVCAR-4
OVCAR-5 = test system: OVCAR-5
OVCAR-8 = test system: OVCAR-8
PC-3 = test system: PC-3
RPMI-8226 = test system: RPMI-8226
RXF 393 = test system: RXF 393
SF-268 = test system: SF-268
SF-295 = test system: SF-295
SF-539 = test system: SF-539
SK-MEL-28 = test system: SK-MEL-28
SK-MEL-2 = test system: SK-MEL-2
SK-MEL-5 = test system: SK-MEL-5
SK-OV-3 = test system: SK-OV-3
SN12C = test system: SN12C
SNB-19 = test system: SNB-19
SNB-75 = test system: SNB-75
SR = test system: SR
SW-620 = test system: SW-620
T47D = test system: T47D
TK-10 = test system: TK-10
U-251 = test system: U-251
UACC-257 = test system: UACC-257
UACC-62 = test system: UACC-62
UO-31 = test system: UO-31

## N#CC(c1ccccc1)N(CCc1ccccc1)C(=O)c1ccccc1 (stereo not given)
786-0
  GI50: 27.7 µM (inactive)
A498
  GI50: > 100 µM (inactive)
A549
  GI50: > 100 µM (inactive)
ACHN
  GI50: > 91.8 µM (inactive)
BT-549
  GI50: > 56.2 µM (inactive)
CAKI-1
  GI50: > 100 µM (inactive)
CCRF-CEM
  GI50: > 100 µM (inactive)
COLO 205
  GI50: > 100 µM (inactive)
DU-145
  GI50: > 100 µM (inactive)
EKVX
  GI50: > 77.4 µM (inactive)
HCC 2998
  GI50: > 100 µM (inactive)
HCT-116
  GI50: > 74.8 µM (inactive)
HCT-15
  GI50: > 100 µM
HL-60
  GI50: > 100 µM (inactive)
HOP-62
  GI50: 34 µM (inactive)
HOP-92
  GI50: 20 µM (inactive)
HT-29
  GI50: > 100 µM (inactive)
Hs-578T
  GI50: 26.2 µM (inactive)
IGROV-1
  GI50: > 74 µM (inactive)
K562
  GI50: > 100 µM (inactive)
KM12
  GI50: > 100 µM (inactive)
LOX IMVI
  GI50: > 100 µM (inactive)
M14
  GI50: > 100 µM (inactive)
MCF7
  GI50: > 100 µM (inactive)
MDA-MB-231
  GI50: 47.8 µM (inactive)
MDA-MB-435
  GI50: > 100 µM (inactive)
MDA-N
  GI50: > 100 µM (inactive)
MOLT-4
  GI50: > 100 µM (inactive)
Malme-3M
  GI50: > 72.1 µM (inactive)
NCI-H226
  GI50: > 58.7 µM (inactive)
NCI-H23
  GI50: 71.9 µM (inactive)
NCI-H460
  GI50: > 100 µM (inactive)
NCI-H522
  GI50: > 59.2 µM (inactive)
NCI/ADR-RES
  GI50: 42.9 µM (inactive)
OVCAR-3
  GI50: > 100 µM (inactive)
OVCAR-4
  GI50: 51.2 µM (inactive)
OVCAR-5
  GI50: > 100 µM (inactive)
OVCAR-8
  GI50: 38.7 µM (inactive)
PC-3
  GI50: > 93.8 µM (inactive)
RPMI-8226
  GI50: > 100 µM (inactive)
RXF 393
  GI50: > 52.1 µM (inactive)
SF-268
  GI50: 30.2 µM (inactive)
SF-295
  GI50: 38.5 µM (inactive)
SF-539
  GI50: 31.3 µM (inactive)
SK-MEL-28
  GI50: > 100 µM (inactive)
SK-MEL-2
  GI50: > 64.7 µM (inactive)
SK-MEL-5
  GI50: > 100 µM (inactive)
SK-OV-3
  GI50: 53.3 µM (inactive)
SN12C
  GI50: > 100 µM (inactive)
SNB-19
  GI50: 26.2 µM (inactive)
SNB-75
  GI50: 12.7 µM (inactive)
SR
  GI50: > 100 µM (inactive)
SW-620
  GI50: > 100 µM (inactive)
T47D
  GI50: > 100 µM (inactive)
TK-10
  GI50: > 75.2 µM (inactive)
U-251
  GI50: 52.4 µM (inactive)
UACC-257
  GI50: > 100 µM (inactive)
UACC-62
  GI50: 51.2 µM (inactive)
UO-31
  GI50: > 74.6 µM (inactive)

## COc1cc(C2c3cc4c(cc3OC(NNc3ccccc3)C2C)OCO4)cc(OC)c1OC (stereo not given)
786-0
  GI50: 1.1 µM (active)
A498
  GI50: 2.22 µM (inactive)
A549
  GI50: 1.6 µM (inactive)
ACHN
  GI50: 0.631 µM (active)
BT-549
  GI50: 1.01 µM (active)
CAKI-1
  GI50: 0.982 µM (active)
CCRF-CEM
  GI50: 0.885 µM (active)
COLO 205
  GI50: 1.46 µM (inactive)
DU-145
  GI50: 2.11 µM (inactive)
EKVX
  GI50: 1.73 µM (inactive)
HCC 2998
  GI50: 0.953 µM (active)
HCT-116
  GI50: 1.03 µM (active)
HCT-15
  GI50: 0.417 µM
HL-60
  GI50: 1.58 µM (inactive)
HOP-62
  GI50: 0.923 µM (active)
HOP-92
  GI50: 6.43 µM (inactive)
HT-29
  GI50: 0.986 µM (active)
Hs-578T
  GI50: 2.96 µM (inactive)
IGROV-1
  GI50: 1.26 µM (inactive)
K562
  GI50: 0.437 µM (active)
KM12
  GI50: 0.395 µM (active)
LOX IMVI
  GI50: 0.706 µM (active)
M14
  GI50: 0.869 µM (active)
MCF7
  GI50: 0.714 µM (active)
MDA-MB-231
  GI50: 3.26 µM (inactive)
MDA-MB-435
  GI50: 0.305 µM (active)
MDA-N
  GI50: 0.255 µM (active)
MOLT-4
  GI50: 1.09 µM (active)
Malme-3M
  GI50: 0.935 µM (active)
NCI-H226
  GI50: 1.92 µM (inactive)
NCI-H23
  GI50: 2.83 µM (inactive)
NCI-H460
  GI50: 1.02 µM (active)
NCI-H522
  GI50: 0.977 µM (active)
NCI/ADR-RES
  GI50: 0.597 µM (active)
OVCAR-3
  GI50: 0.993 µM (active)
OVCAR-4
  GI50: 4.94 µM (inactive)
OVCAR-5
  GI50: 1.69 µM (inactive)
OVCAR-8
  GI50: 2.81 µM (inactive)
PC-3
  GI50: 0.778 µM (active)
RPMI-8226
  GI50: 1.43 µM (inactive)
RXF 393
  GI50: 1.54 µM (inactive)
SF-268
  GI50: 1.86 µM (inactive)
SF-295
  GI50: 0.361 µM (active)
SF-539
  GI50: 0.571 µM (active)
SK-MEL-28
  GI50: 1.57 µM (inactive)
SK-MEL-2
  GI50: 1.23 µM (inactive)
SK-MEL-5
  GI50: 1.32 µM (inactive)
SK-OV-3
  GI50: 2.08 µM (inactive)
SN12C
  GI50: 2.99 µM (inactive)
SNB-19
  GI50: 1.32 µM (inactive)
SNB-75
  GI50: 8.3 µM (inactive)
SR
  GI50: 0.673 µM (active)
SW-620
  GI50: 1.4 µM (inactive)
T47D
  GI50: 2.43 µM (inactive)
TK-10
  GI50: 2.48 µM (inactive)
U-251
  GI50: 1.12 µM (inactive)
UACC-257
  GI50: 2.07 µM (inactive)
UACC-62
  GI50: 0.544 µM (active)
UO-31
  GI50: 0.91 µM (active)

## Cc1cn(C2CC(O)C(Cn3cc(Cn4ncc(=O)[nH]c4=O)nn3)O2)c(=O)[nH]c1=O (stereo not given)
786-0
  GI50: > 100 µM (inactive)
A498
  GI50: > 100 µM (inactive)
A549
  GI50: > 100 µM (inactive)
ACHN
  GI50: > 100 µM (inactive)
BT-549
  GI50: > 100 µM (inactive)
CAKI-1
  GI50: > 100 µM (inactive)
CCRF-CEM
  GI50: 0.478 µM (active)
COLO 205
  GI50: > 100 µM (inactive)
DU-145
  GI50: > 100 µM (inactive)
EKVX
  GI50: > 100 µM (inactive)
HCC 2998
  GI50: > 100 µM (inactive)
HCT-116
  GI50: > 100 µM (inactive)
HCT-15
  GI50: > 100 µM
HL-60
  GI50: > 100 µM (inactive)
HOP-62
  GI50: > 100 µM (inactive)
HOP-92
  GI50: > 100 µM (inactive)
HT-29
  GI50: > 100 µM (inactive)
Hs-578T
  GI50: > 100 µM (inactive)
IGROV-1
  GI50: > 100 µM (inactive)
KM12
  GI50: > 100 µM (inactive)
LOX IMVI
  GI50: > 100 µM (inactive)
M14
  GI50: > 100 µM (inactive)
MCF7
  GI50: > 100 µM (inactive)
MDA-MB-231
  GI50: > 100 µM (inactive)
MDA-MB-435
  GI50: > 100 µM (inactive)
MDA-N
  GI50: > 100 µM (inactive)
MOLT-4
  GI50: > 100 µM (inactive)
Malme-3M
  GI50: > 100 µM (inactive)
NCI-H226
  GI50: > 100 µM (inactive)
NCI-H23
  GI50: > 100 µM (inactive)
NCI-H522
  GI50: > 100 µM (inactive)
NCI/ADR-RES
  GI50: > 100 µM (inactive)
OVCAR-3
  GI50: > 100 µM (inactive)
OVCAR-4
  GI50: > 100 µM (inactive)
OVCAR-5
  GI50: > 100 µM (inactive)
OVCAR-8
  GI50: > 100 µM (inactive)
PC-3
  GI50: > 100 µM (inactive)
RPMI-8226
  GI50: > 100 µM (inactive)
RXF 393
  GI50: > 100 µM (inactive)
SF-268
  GI50: > 100 µM (inactive)
SF-295
  GI50: > 100 µM (inactive)
SF-539
  GI50: > 100 µM (inactive)
SK-MEL-28
  GI50: > 100 µM (inactive)
SK-MEL-2
  GI50: > 100 µM (inactive)
SK-MEL-5
  GI50: > 100 µM (inactive)
SK-OV-3
  GI50: > 100 µM (inactive)
SN12C
  GI50: > 100 µM (inactive)
SNB-19
  GI50: > 100 µM (inactive)
SNB-75
  GI50: > 100 µM (inactive)
SR
  GI50: > 100 µM (inactive)
SW-620
  GI50: > 100 µM (inactive)
T47D
  GI50: > 100 µM (inactive)
TK-10
  GI50: > 100 µM (inactive)
U-251
  GI50: > 100 µM (inactive)
UACC-257
  GI50: > 100 µM (inactive)
UACC-62
  GI50: > 100 µM (inactive)
UO-31
  GI50: > 100 µM (inactive)
